Assay results as given in patent US10336761B2, “TGFβ receptor antagonist” (BRISTOL-MYERS SQUIBB COMPANY, priority 2015, dated 2019).

Biological target: HIS-TGFβR1 T204D (Homo sapiens (Human), UniProt P36897, T204D)
Assay: HTRF probe-displacement assay, HIS-TGFβR1 T204D
Format: binding
Settings: 1 hour at room temperature

HIS-TGFβR1 T204D, sequence (P36897 34-503 T204D): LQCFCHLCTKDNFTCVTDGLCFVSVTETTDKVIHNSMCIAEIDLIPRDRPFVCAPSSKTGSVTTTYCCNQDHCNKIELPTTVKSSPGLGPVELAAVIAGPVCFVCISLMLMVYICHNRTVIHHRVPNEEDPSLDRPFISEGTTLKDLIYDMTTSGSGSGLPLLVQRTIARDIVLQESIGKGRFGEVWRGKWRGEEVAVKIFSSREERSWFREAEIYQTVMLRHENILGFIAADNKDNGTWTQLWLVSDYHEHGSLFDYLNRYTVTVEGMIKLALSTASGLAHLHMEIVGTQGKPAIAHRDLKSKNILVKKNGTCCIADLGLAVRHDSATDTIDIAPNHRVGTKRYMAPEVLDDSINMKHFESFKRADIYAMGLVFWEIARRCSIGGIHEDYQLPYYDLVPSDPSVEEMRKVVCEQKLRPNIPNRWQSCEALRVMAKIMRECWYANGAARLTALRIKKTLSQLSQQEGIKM

| SMILES | IC50 |
| --- | --- |
| CC(=O)Nc1cc(Nc2nc(-c3cccc(C(F)F)n3)nn3cccc23)c(F)cn1 [Example 225, N-[4-({2-[6-(difluoromethyl)pyridin-2-yl]pyrrolo[2,1-f][1,2,4]triazin-4-yl}amino)-5-fluoropyridin-2-yl]acetamide] | 5.1 nM |
| Cc1cccc(-c2nc(Nc3ccncc3C(=O)N(C)CCN(C)C)c3cccn3n2)n1 [Example 162, N-[2-(dimethylamino)ethyl]-N-methyl-4-{[2-(6-methylpyridin-2-yl)pyrrolo[2,1-f][1,2,4]triazin-4-yl]amino}pyridine-3-carboxamide] | 110 nM |
| Cc1cccc(-c2nc(Nc3ccncc3C(=O)NCCCN3CCCC3)c3cccn3n2)n1 [Example 221, 4-{[2-(6-methylpyridin-2-yl)pyrrolo[2,1-f][1,2,4]triazin-4-yl]amino}-N-[3-(pyrrolidin-1-yl)propyl]pyridine-3-carboxamide] | 4 nM |
| O=C(NCCN1CCS(=O)(=O)CC1)c1cnccc1Nc1nc(-c2cccc(C(F)(F)F)n2)nn2cccc12 [Example 179, N-[2-(1,1-dioxo-1,4-thiomorpholin-4-yl)ethyl]-4-({2-[6-(trifluoromethyl)pyridin-2-yl]pyrrolo[2,1-f][1,2,4]triazin-4-yl}amino)pyridine-3-carboxamide] | 260 nM |
| O=C(c1cnccc1Nc1nc(-c2cccc(C(F)F)n2)nn2cccc12)N1CCC(O)(c2ccccc2)CC1 [Example 185, 1-[4-({2-[6-(difluoromethyl)pyridin-2-yl]pyrrolo[2,1-f][1,2,4]triazin-4-yl}amino)pyridine-3-carbonyl]-4-phenylpiperidin-4-ol] | 1200 nM |
| COc1cccc(-c2nc(Nc3ccncc3F)c3cccn3n2)n1 [Example 58, 3-fluoro-N-[2-(6-methoxypyridin-2-yl)pyrrolo[2,1-f][1,2,4]triazin-4-yl]pyridin-4-amine] | 4 nM |
| CCc1cc2c(Nc3ccncc3F)nc(-c3cccc(OC)n3)nn2c1 [Example 29, 6-ethyl-N-(3-fluoropyridin-4-yl)-2-(6-methoxypyridin-2-yl)pyrrolo[2,1-f][1,2,4]triazin-4-amine] | 16 nM |
| Cc1cccc(-c2nc(Nc3ccncn3)c3cccn3n2)n1 [Example 64, N-[2-(6-methylpyridin-2-yl)pyrrolo[2,1-f][1,2,4]triazin-4-yl]pyrimidin-4-amine] | 2.2 nM |
| COc1cccc(-c2nc(Nc3ccncc3F)c3cc(NS(C)(=O)=O)cn3n2)n1 [Example 22, N-{4-[(3-fluoropyridin-4-yl)amino]-2-(6-methoxypyridin-2-yl)pyrrolo[2,1-f][1,2,4]triazin-6-yl}methanesulfonamide] | 56 nM |
| Cc1nc(-c2nc(Nc3ccncc3)c3cccn3n2)ccc1F [Example 69, N-[2-(5-fluoro-6-methylpyridin-2-yl)pyrrolo[2,1-f][1,2,4]triazin-4-yl]pyridin-4-amine] | 1.9 nM |
| COc1nc(-c2nc(Nc3ccncc3F)c3cccn3n2)cs1 [Example 249, 3-fluoro-N-[2-(2-methoxy-1,3-thiazol-4-yl)pyrrolo[2,1-f][1,2,4]triazin-4-yl]pyridin-4-amine] | 5.8 nM |
| Cc1cccc(-c2nc(Nc3ccncc3C(=O)NC3CCOCC3)c3cccn3n2)n1 [Example 164, 4-{[2-(6-methylpyridin-2-yl)pyrrolo[2,1-f][1,2,4]triazin-4-yl]amino}-N-(oxan-4-yl)pyridine-3-carboxamide] | 75 nM |
| NC(=O)c1cnccc1Nc1nc(-c2cccc(C(F)F)n2)nn2cccc12 [Example 228, 4-({2-[6-(difluoromethyl)pyridin-2-yl]pyrrolo[2,1-f][1,2,4]triazin-4-yl}amino)pyridine-3-carboxamide] | 1.6 nM |
| CC(C)(O)CNC(=O)c1cnccc1Nc1nc(-c2cccc(C(F)F)n2)nn2cccc12 [Example 188, 4-({2-[6-(difluoromethyl)pyridin-2-yl]pyrrolo[2,1-f][1,2,4]triazin-4-yl}amino)-N-(2-hydroxy-2-methylpropyl)pyridine-3-carboxamide] | 49 nM |
| CC(C)(C)CC(=O)Nc1cc(Nc2nc(-c3cccc(C(F)(F)F)n3)nn3cccc23)ccn1 [Example 321, 3,3-dimethyl-N-[4-({2-[6-(trifluoromethyl)pyridin-2-yl]pyrrolo[2,1-f][1,2,4]triazin-4-yl}amino)pyridin-2-yl]butanamide] | 91 nM |

Further lines, results first:

| IC50 | SMILES |
| --- | --- |
| 71 nM | Fc1cnccc1Nc1nc(-c2ccccn2)nn2ccc(CNc3ccc(-c4cnco4)cc3)c12 [Example 297, 3-fluoro-N-[5-({[4-(1,3-oxazol-5-yl)phenyl]amino}methyl)-2-(pyridin-2-yl)pyrrolo[2,1-f][1,2,4]triazin-4-yl]pyridin-4-amine] |
| 1.6 nM | Nc1cccc(-c2nc(Nc3ccncc3F)c3cccn3n2)n1 [Example 53, 2-(6-aminopyridin-2-yl)-N-(3-fluoropyridin-4-yl)pyrrolo[2,1-f][1,2,4]triazin-4-amine] |
| 2.3 nM | OCCN1CCN(Cc2ccn3nc(-c4ccccn4)nc(Nc4ccncc4F)c23)CC1 [Example 231, 2-[4-({4-[(3-fluoropyridin-4-yl)amino]-2-(pyridin-2-yl)pyrrolo[2,1-f][1,2,4]triazin-5-yl}methyl)piperazin-1-yl]ethan-1-ol] |
| 13 nM | Fc1cnccc1Nc1nc(-c2cccc(C(F)(F)F)n2)nn2ccc(CN3CCC(F)(F)CC3)c12 [Example 123, N-{5-[(4,4-difluoropiperidin-1-yl)methyl]-2-[6-(trifluoromethyl)pyridin-2-yl]pyrrolo[2,1-f][1,2,4]triazin-4-yl}-3-fluoropyridin-4-amine] |
| 0.85 nM | CC(=O)Nc1cc(Nc2nc(-c3ccccn3)nn3ccc(CNCC(C)(C)O)c23)ccn1 [Example 117, N-{4-[(5-{[(2-hydroxy-2-methylpropyl)amino]methyl}-2-(pyridin-2-yl)pyrrolo[2,1-f][1,2,4]triazin-4-yl)amino]pyridin-2-yl}acetamide] |
| 0.84 nM | OC[C@@H](O)CNCc1ccn2nc(-c3ccccn3)nc(Nc3ccncc3F)c12 [Example 287, (2S)-3-[({4-[(3-fluoropyridin-4-yl)amino]-2-(pyridin-2-yl)pyrrolo[2,1-f][1,2,4]triazin-5-yl}methyl)amino]propane-1,2-diol] |
| 4 nM | O[C@@H](CNCc1ccn2nc(-c3ccccn3)nc(Nc3ccncc3F)c12)c1ccccc1 [Example 310, (1R)-2-[({4-[(3-fluoropyridin-4-yl)amino]-2-(pyridin-2-yl)pyrrolo[2,1-f][1,2,4]triazin-5-yl}methyl)amino]-1-phenylethan-1-ol] |
| 23 nM | Fc1cnccc1Nc1nc(-c2ccccn2)nn2ccc(CNCC3CNCCO3)c12 (stereo not shown) [Example 299, 3-fluoro-N-(5-{[(morpholin-2-ylmethyl)amino]methyl}-2-(pyridin-2-yl)pyrrolo[2,1-f][1,2,4]triazin-4-yl)pyridin-4-amine] |
| 3.3 nM | C[C@@H](NCc1ccn2nc(-c3ccccn3)nc(Nc3ccncc3F)c12)C(C)(C)C [Example 300, N-[5-({[(2R)-3,3-dimethylbutan-2-yl]amino}methyl)-2-(pyridin-2-yl)pyrrolo[2,1-f][1,2,4]triazin-4-yl]-3-fluoropyridin-4-amine] |
| 1.6 nM | CC(C)(O)CNCc1ccn2nc(-c3ccccn3)nc(Nc3ccncc3F)c12 [Example 125, 1-[({4-[(3-fluoropyridin-4-yl)amino]-2-(pyridin-2-yl)pyrrolo[2,1-f][1,2,4]triazin-5-yl}methyl)amino]-2-methylpropan-2-ol] |
| 1.4 nM | CN(C)CCNCc1ccn2nc(-c3ccccn3)nc(Nc3ccncc3F)c12 [Example 280, N-[5-({[2-(dimethylamino)ethyl]amino}methyl)-2-(pyridin-2-yl)pyrrolo[2,1-f][1,2,4]triazin-4-yl]-3-fluoropyridin-4-amine] |
| 4.5 nM | CCNc1cc(Nc2nc(-c3ccccn3)nn3ccc(CNCC(C)(C)O)c23)ccn1 [Example 258, 1-{[(4-{[2-(ethylamino)pyridin-4-yl]amino}-2-(pyridin-2-yl)pyrrolo[2,1-f][1,2,4]triazin-5-yl)methyl]amino}-2-methylpropan-2-ol] |
| < 0.25 nM | OCC1(CNCc2ccn3nc(-c4ccccn4)nc(Nc4ccncc4F)c23)COC1 [Example 296, (3-{[({4-[(3-fluoropyridin-4-yl)amino]-2-(pyridin-2-yl)pyrrolo[2,1-f][1,2,4]triazin-5-yl}methyl)amino]methyl}oxetan-3-yl)methanol] |
| 0.79 nM | Fc1cccc(-c2nc(Nc3ccncc3F)c3cccn3n2)n1 [Example 14, 3-fluoro-N-[2-(6-fluoropyridin-2-yl)pyrrolo[2,1-f][1,2,4]triazin-4-yl]pyridin-4-amine] |
| < 0.25 nM | CC(C)(O)CNCc1ccn2nc(-c3ccc(F)cn3)nc(Nc3ccncc3F)c12 [Example 235, 1-({[2-(5-fluoropyridin-2-yl)-4-[(3-fluoropyridin-4-yl)amino]pyrrolo[2,1-f][1,2,4]triazin-5-yl]methyl}amino)-2-methylpropan-2-ol] |
| 0.7 nM | OC1(CCNCc2ccn3nc(-c4ccccn4)nc(Nc4ccncc4F)c23)CCCC1 [Example 240, 1-{2-[({4-[(3-fluoropyridin-4-yl)amino]-2-(pyridin-2-yl)pyrrolo[2,1-f][1,2,4]triazin-5-yl}methyl)amino]ethyl}cyclopentan-1-ol] |
| 63 nM | COc1cccc(-c2nc(Nc3ccncc3F)c3c(CNCCN4CCCC4)ccn3n2)n1 [Example 119, 3-fluoro-N-[2-(6-methoxypyridin-2-yl)-5-({[2-(pyrrolidin-1-yl)ethyl]amino}methyl)pyrrolo[2,1-f][1,2,4]triazin-4-yl]pyridin-4-amine] |
| 0.79 nM | Fc1ccc(-c2nc(Nc3ccncc3F)c3cccn3n2)nc1 [Example 65, 3-fluoro-N-[2-(5-fluoropyridin-2-yl)pyrrolo[2,1-f][1,2,4]triazin-4-yl]pyridin-4-amine] |
| 2.6 nM | Cc1cnc(CNCc2ccn3nc(-c4ccccn4)nc(Nc4ccncc4F)c23)cn1 [Example 305, 3-fluoro-N-[5-({[(5-methylpyrazin-2-yl)methyl]amino}methyl)-2-(pyridin-2-yl)pyrrolo[2,1-f][1,2,4]triazin-4-yl]pyridin-4-amine] |
